The values below come from ChEMBL document CHEMBL1201862, “PubChem BioAssay data set” (2004).

Active and inactive are the calls of the source.

The target in experiment [1] is RAC-alpha serine/threonine-protein kinase (Homo sapiens, UniProt P31749). The format is functional.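 Further: AKT1 affinity measured as one member of a kinome-wide kinase profiling panel.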
The target in experiment [2] is Protein-tyrosine kinase 6 (Homo sapiens, UniProt Q13882). It is filed as functional.
Experiment [3] has as its target Insulin receptor (Homo sapiens, UniProt P06213). It is filed as functional.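 Further: insulin receptor kinase tested as one member of a kinome-wide kinase panel.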
Experiment [4] deals with Ribosomal protein S6 kinase beta-1 (Homo sapiens, UniProt P23443). It is filed as functional.
Experiment [5] concerns the target Dual specificity tyrosine-phosphorylation-regulated kinase 3 (Homo sapiens, UniProt O43781). It is filed as functional.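 Further: measured as one member of a broad kinase panel.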
In experiment [6] the target is Phosphorylase b kinase gamma catalytic chain, liver/testis isoform (Homo sapiens, UniProt P15735). The format is functional.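 Further: PHKG2 measured as one member of a kinome-wide kinase panel.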
Experiment [7] has as its target Tyrosine-protein kinase Fer (Homo sapiens, UniProt P16591). It is filed as functional.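 Further: FER tested as one member of a kinome panel.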
Experiment [8] addresses MAP kinase-activated protein kinase 3 (Homo sapiens, UniProt Q16644). The format is functional.
The target of experiment [9] is Mitogen-activated protein kinase 12 (Homo sapiens, UniProt P53778). The format is functional.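 Further: measured as one member of a kinome-wide kinase profiling panel.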
The target of experiment [10] is Non-receptor tyrosine-protein kinase TYK2 (Homo sapiens, UniProt P29597). It is filed as functional.
For experiment [11], the target named is MAP/microtubule affinity-regulating kinase 3 (Homo sapiens, UniProt P27448). It is filed as functional.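 Further: MARK3 affinity measured as one member of a kinome panel.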
Experiment [12] concerns the target Serine/threonine-protein kinase MRCK alpha (Homo sapiens, UniProt Q5VT25). It is filed as functional.
Experiment [13] addresses Casein kinase I isoform gamma-1 (Homo sapiens, UniProt Q9HCP0). It is filed as functional.
The target of experiment [14] is Cyclin-dependent kinase 2 (Homo sapiens, UniProt P24941). It is filed as functional.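 Further: CDK2 measured as one member of a broad kinome profiling panel.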
Experiment [15] has as its target Serine/threonine-protein kinase Nek4 (Homo sapiens, UniProt P51957). It is filed as functional.
Experiment [16] has as its target Serine/threonine-protein kinase pim-3 (Homo sapiens, UniProt Q86V86). It is filed as functional.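 Further: value obtained as one member of a broad kinase panel profiling effort.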
The target in experiment [17] is Proto-oncogene tyrosine-protein kinase ROS (Homo sapiens, UniProt P08922). The format is functional.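 Further: ROS1 tested as one member of a kinome-wide kinase panel.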
Experiment [18] has as its target MAP kinase-interacting serine/threonine-protein kinase 2 (Homo sapiens, UniProt Q9HBH9). The format is functional.
In experiment [19] the target is RAC-gamma serine/threonine-protein kinase (Homo sapiens, UniProt Q9Y243). The format is functional.
Experiment [20] has as its target Tyrosine-protein kinase FRK (Homo sapiens, UniProt P42685). The format is functional.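 Further: FRK tested as one member of a kinome panel.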
Experiment [21] concerns the target Interleukin-1 receptor-associated kinase 1 (Homo sapiens, UniProt P51617). It is filed as functional.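 Further: IRAK1 tested as one member of a kinome panel.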
The target of experiment [22] is Fibroblast growth factor receptor 3 (Homo sapiens, UniProt P22607). The format is functional.
Experiment [23] deals with SRSF protein kinase 1 (Homo sapiens, UniProt Q96SB4). It is filed as functional.
For experiment [24], the target named is Ephrin type-A receptor 2 (Homo sapiens, UniProt P29317). The format is functional.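 Further: EPHA2 tested as one member of a kinome-wide kinase panel.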
Experiment [25] addresses T1, Protein RecA (Mycobacterium tuberculosis, UniProt P9WHJ3).
T1 sequence (P9WHJ3 whole entry): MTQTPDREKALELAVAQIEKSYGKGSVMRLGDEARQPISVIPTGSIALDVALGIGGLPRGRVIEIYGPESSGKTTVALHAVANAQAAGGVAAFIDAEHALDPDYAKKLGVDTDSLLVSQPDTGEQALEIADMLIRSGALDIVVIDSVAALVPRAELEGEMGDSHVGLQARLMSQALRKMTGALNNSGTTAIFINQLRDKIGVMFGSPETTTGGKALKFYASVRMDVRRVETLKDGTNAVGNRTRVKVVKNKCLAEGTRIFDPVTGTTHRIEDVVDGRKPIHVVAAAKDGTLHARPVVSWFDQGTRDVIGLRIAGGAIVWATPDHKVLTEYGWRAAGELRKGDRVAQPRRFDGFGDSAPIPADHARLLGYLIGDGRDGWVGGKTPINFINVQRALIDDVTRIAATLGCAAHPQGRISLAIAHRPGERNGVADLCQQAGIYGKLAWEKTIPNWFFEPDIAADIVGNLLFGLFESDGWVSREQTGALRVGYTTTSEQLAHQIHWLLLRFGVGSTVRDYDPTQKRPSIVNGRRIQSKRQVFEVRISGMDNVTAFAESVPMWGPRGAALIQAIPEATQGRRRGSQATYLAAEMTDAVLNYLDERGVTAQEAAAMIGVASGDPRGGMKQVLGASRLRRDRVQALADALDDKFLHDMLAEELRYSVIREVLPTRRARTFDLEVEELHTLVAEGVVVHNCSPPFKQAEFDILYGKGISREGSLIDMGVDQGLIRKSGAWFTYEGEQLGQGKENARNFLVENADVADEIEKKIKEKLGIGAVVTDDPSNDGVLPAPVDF
In words: Fluorescence Cell-Free Homogeneous Dose Retest to Identify Inhibitors of RecA-Intein Splicing Activity. [Related pubchem assays (depositor defined):AID2097, AID2223, AID489010, AID492950]. It is filed as functional.

Experiment [26] can be described thus: Shn3 3'UTR reporter inhibitors, dose response, cell-based, Clone20 osteoblasts, firefly luciferase, cherry-picked (AID 624132).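 Further: firefly luciferase luminescence from reporter carrying the Shn3 3'UTR in osteoblasts.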 It is filed as functional.
The subject of experiment [27] is Streptococcus sp. 'group A'. The experiment in a line: growth inhibition of control SK(-) GAS strain, dose response, counter-screen for streptokinase expression inhibitor project, luminescence, kanamycin, BacTiterGlo, confirmation (AID 1900). It is filed as functional, organism-based.
Experiment [28] has as its target T2, Streptokinase A (Streptococcus pyogenes serotype M1, UniProt P10520).
T2 sequence (P10520 whole entry): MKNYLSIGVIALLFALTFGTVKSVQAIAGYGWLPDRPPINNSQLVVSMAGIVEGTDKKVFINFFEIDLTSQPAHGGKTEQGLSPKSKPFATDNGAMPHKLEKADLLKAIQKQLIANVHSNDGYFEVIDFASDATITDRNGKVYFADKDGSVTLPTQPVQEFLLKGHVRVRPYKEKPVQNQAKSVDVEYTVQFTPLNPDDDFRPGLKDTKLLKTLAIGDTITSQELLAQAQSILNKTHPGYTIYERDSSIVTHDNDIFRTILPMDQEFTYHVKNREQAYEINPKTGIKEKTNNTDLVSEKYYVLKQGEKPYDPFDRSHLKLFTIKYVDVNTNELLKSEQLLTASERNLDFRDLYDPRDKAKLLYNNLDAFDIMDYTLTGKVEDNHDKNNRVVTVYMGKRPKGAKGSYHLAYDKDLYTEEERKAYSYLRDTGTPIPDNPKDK
The experiment in a line: S. pyogenes streptokinase expression inhibitors, potency, dose response, plasminogen activation absorbance, OD405 (AID 1914).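 Further: secreted streptokinase activity via plasminogen activation per viability signal from cell pellet.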 The format is functional, Streptococcus pyogenes M1 GAS.

Chain of Phosphorylase b kinase gamma catalytic chain, liver/testis isoform (P15735 whole entry, canonical isoform): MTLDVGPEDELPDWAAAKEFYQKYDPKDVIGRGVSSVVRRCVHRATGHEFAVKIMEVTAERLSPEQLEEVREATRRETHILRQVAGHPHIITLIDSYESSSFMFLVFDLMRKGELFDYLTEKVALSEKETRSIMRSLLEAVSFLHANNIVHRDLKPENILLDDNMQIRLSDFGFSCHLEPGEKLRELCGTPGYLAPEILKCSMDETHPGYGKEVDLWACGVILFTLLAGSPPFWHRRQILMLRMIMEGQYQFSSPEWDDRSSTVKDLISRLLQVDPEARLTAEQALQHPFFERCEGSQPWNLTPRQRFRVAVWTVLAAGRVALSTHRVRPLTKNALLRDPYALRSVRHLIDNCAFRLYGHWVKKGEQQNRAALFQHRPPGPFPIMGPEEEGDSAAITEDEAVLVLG
Chain of Dual specificity tyrosine-phosphorylation-regulated kinase 3 (O43781 whole entry, canonical isoform): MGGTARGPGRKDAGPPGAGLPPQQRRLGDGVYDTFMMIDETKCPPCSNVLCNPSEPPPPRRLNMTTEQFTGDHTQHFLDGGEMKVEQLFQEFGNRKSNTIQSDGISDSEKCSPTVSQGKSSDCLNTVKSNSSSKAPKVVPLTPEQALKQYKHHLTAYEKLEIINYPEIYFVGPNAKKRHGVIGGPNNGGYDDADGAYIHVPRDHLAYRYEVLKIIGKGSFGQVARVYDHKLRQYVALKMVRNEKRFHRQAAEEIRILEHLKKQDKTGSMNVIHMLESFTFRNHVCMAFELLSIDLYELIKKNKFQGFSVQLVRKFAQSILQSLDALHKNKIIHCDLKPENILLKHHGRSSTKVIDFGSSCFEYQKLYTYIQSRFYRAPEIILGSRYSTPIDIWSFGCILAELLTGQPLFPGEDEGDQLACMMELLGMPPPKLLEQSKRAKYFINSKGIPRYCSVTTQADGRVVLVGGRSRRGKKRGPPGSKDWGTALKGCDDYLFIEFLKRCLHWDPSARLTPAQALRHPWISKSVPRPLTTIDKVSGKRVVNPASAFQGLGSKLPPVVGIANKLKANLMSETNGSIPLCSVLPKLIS
Chain of Casein kinase I isoform gamma-1 (Q9HCP0 whole entry, canonical isoform): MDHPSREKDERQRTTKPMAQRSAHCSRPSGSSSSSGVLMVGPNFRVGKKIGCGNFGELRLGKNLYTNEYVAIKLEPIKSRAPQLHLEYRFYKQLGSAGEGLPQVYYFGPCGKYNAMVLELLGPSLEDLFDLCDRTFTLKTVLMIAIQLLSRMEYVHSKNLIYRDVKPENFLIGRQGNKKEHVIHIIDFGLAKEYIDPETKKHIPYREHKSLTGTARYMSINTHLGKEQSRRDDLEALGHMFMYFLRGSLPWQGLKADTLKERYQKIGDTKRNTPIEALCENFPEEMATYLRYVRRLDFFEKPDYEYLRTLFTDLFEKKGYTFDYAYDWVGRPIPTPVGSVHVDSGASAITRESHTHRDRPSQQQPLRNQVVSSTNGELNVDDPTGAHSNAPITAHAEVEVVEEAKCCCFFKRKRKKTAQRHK
Chain of RAC-alpha serine/threonine-protein kinase (P31749 whole entry): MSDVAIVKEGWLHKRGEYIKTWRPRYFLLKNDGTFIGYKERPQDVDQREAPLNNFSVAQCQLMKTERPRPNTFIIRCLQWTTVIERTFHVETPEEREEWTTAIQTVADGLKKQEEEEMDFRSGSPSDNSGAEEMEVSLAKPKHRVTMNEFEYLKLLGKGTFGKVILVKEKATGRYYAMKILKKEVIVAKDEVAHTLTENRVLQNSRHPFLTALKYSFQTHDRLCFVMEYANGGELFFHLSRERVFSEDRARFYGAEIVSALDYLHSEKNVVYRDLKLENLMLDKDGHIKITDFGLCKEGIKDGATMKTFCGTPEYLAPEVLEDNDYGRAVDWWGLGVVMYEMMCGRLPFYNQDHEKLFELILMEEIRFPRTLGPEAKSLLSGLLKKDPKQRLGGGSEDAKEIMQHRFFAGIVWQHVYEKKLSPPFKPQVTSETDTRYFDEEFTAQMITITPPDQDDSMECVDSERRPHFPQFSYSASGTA
Chain of MAP kinase-interacting serine/threonine-protein kinase 2 (Q9HBH9 whole entry): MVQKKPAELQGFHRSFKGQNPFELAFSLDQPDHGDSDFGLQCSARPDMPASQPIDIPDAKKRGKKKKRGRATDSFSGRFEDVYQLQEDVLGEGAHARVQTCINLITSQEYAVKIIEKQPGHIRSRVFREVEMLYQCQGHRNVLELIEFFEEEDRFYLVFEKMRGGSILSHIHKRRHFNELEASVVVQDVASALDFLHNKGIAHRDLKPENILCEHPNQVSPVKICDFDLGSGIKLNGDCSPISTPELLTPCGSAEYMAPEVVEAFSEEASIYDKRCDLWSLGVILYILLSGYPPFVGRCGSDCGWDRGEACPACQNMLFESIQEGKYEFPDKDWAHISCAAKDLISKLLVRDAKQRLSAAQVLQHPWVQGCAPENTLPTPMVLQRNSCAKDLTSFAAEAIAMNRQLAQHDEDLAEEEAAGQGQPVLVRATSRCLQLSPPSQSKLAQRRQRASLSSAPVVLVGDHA
Chain of Serine/threonine-protein kinase MRCK alpha (Q5VT25 whole entry, canonical isoform): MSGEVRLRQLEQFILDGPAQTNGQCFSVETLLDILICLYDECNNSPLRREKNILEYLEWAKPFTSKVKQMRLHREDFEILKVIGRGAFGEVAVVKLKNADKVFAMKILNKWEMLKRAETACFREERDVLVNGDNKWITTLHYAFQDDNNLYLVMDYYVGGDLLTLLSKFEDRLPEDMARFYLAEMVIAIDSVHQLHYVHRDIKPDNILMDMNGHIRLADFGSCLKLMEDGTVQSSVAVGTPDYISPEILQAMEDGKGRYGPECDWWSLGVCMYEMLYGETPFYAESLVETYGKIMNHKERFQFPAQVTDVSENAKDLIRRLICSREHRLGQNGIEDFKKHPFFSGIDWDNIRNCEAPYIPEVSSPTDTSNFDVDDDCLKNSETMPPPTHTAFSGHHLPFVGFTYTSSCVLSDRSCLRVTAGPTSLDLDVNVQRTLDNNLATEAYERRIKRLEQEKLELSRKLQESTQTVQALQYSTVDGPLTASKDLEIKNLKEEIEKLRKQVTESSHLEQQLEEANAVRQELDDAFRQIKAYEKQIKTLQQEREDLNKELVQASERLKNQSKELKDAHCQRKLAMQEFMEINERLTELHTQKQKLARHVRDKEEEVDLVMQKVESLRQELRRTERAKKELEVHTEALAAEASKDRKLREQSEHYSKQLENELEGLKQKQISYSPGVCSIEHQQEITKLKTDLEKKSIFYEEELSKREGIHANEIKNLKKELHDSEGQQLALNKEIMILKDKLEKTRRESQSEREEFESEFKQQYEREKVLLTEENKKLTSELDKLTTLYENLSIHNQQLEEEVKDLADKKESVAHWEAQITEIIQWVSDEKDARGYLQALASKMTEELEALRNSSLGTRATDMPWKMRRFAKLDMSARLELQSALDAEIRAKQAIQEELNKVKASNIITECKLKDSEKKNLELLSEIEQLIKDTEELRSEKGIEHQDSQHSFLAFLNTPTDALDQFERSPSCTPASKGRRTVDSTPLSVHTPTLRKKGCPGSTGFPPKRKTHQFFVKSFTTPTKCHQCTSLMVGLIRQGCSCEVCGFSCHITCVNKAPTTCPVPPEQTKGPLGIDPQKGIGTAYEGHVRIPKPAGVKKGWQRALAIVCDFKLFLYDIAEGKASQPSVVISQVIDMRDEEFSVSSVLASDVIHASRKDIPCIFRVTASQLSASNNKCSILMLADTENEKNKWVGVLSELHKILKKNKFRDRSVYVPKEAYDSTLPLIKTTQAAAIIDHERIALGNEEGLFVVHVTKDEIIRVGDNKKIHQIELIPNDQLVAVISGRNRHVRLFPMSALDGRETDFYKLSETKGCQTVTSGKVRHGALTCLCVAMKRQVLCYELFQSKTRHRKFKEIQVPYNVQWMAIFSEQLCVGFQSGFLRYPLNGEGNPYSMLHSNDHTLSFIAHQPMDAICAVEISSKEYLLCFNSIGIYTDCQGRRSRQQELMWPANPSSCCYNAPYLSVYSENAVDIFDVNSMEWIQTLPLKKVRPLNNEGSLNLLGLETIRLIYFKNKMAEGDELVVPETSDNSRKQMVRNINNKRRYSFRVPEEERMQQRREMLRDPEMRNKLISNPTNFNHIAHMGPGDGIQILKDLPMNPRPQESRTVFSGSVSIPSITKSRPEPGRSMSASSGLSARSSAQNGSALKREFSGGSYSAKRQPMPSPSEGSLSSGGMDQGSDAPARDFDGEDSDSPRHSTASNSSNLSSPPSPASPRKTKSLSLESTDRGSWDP
Chain of Serine/threonine-protein kinase Nek4 (P51957 whole entry): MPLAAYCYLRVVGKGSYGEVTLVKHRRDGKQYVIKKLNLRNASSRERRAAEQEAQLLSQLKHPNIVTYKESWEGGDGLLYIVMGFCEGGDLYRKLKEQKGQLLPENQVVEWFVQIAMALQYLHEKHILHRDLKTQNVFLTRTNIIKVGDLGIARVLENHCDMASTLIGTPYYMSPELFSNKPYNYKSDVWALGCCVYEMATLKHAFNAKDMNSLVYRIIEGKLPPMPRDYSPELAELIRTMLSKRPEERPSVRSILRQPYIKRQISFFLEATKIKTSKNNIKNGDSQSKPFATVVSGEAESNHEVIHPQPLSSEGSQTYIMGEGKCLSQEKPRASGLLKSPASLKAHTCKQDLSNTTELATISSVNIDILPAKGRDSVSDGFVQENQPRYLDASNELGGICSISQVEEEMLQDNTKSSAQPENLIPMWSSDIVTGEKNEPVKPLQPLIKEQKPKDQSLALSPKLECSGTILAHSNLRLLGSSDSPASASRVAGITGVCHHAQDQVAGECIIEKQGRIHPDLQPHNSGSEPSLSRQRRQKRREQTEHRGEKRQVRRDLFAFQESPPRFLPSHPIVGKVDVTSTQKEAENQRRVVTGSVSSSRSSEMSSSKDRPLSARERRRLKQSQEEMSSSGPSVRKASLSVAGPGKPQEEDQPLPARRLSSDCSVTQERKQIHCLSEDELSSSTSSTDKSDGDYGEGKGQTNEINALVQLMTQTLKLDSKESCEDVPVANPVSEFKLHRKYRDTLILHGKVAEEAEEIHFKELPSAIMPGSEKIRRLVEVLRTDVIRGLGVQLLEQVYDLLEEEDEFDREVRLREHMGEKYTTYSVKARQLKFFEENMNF

For orientation: Ki means the dissociation constant of the complex between target and ligand, obtained from inhibition or displacement. As to `CS(=O)(=O)N(Cc1ccc2[nH]c(=O)c3cccn3c2c1)C1CC1`, the Ki in experiment [1] is 31.6 nM (active); in experiment [2], 2000 nM (active); in experiment [3] it was > 5010 nM (inactive); in [4], > 6310 nM (inactive); in experiment [5] it was 158 nM (active); in experiment [6], 2000 nM (active). Also, the Ki in experiment [7] is > 1580 nM (inactive); in [8], 50.1 nM (active); in experiment [9], 316 nM (active); in experiment [10], > 2000 nM (inactive); in [11] it was > 6310 nM (inactive); in experiment [12], 2000 nM (active). Besides, the Ki in [13] is 631 nM (active); in experiment [14] it was > 7940 nM (inactive); in experiment [15] it was 251 nM (active); in experiment [16] it was 2510 nM (active); in experiment [17], 50.1 nM (active); in experiment [18], 794 nM (active). Further, the Ki in experiment [19] is 79.4 nM (active); in experiment [20], > 2510 nM (inactive); in experiment [21], 158 nM (active); in [22] it was > 2000 nM (inactive); in experiment [23], 200 nM (active); in [24], > 3160 nM (inactive).

The EC50 is the concentration at which the effect is half-maximal. Turning to `OCC[n+]1c2ccccc2nc2ccc(N3CCOCC3)cc21`, in experiment [25], the EC50 is > 120000 nM (inconclusive).

The term AC50 denotes the midpoint of the concentration-response curve, whichever way the signal moves. With `Cc1cc(NC(c2ccc(Cl)cc2)c2ccc3cccnc3c2O)no1` (stereo not drawn), in [26], the AC50 is 1050 nM (active). In addition, the EC50 in experiment [27] is 416 nM (active); in [28], > 150000 nM (not active).
